Results on six molecules are retold here after patent US20120101106A1, “Tetrahydronapthyridine Orexin Receptor Antagonists” (priority 2009, published 2012).

The structures appear in SMILES notation. pKi: −log10 of the molar value.

In the assay the target is T1, OX2R (Homo sapiens, UniProt O43614).
T1 construct: expressed in transfected cells; host or cells: CHO cells (membranes)
T1 sequence (O43614 1-444): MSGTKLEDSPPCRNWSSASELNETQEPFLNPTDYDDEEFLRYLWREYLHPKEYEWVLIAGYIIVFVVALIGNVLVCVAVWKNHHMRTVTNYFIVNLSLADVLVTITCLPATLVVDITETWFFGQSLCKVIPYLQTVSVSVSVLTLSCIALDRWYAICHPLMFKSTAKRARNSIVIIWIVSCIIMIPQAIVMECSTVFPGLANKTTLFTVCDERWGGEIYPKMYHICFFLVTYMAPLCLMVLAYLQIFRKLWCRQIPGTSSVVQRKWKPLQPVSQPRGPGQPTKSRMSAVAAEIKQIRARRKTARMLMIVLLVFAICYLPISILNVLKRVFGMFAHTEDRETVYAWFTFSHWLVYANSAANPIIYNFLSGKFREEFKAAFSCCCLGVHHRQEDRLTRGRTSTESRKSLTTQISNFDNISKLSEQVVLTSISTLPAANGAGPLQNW
The assay is described as follows: radioligand binding assay, membranes from CHO cells expressing the OX2 receptor. To be noted: CHO cell membranes. As for the experimental part: The utility of the compounds in accordance with the present invention as orexin receptor OX1R and/or OX2R antagonists may be readily determined without undue experimentation by methodology well known in the art, including the “FLIPR Ca^2+ Flux Assay” (Okumura et al., Biochem. Biophys. Res. Comm. 280:976-981, 2001). In a typical experiment the OX1 and OX2 receptor antagonistic activity of the compounds of the present invention was determined in accordance with the following experimental method. For intracellular calcium measurements, Chinese hamster ovary (CHO) cells expressing the rat orexin-1 receptor or the human orexin-2 receptor, are grown in Iscove's modified DMEM containing 2 mM L-glutamine, […], 1% hypoxanthine-thymidine supplement, 100 U/ml penicillin, 100 ug/ml streptomycin and 10% heat-inactivated fetal calf serum (FCS). The cells are seeded at 20,000 cells/well into Becton-Dickinson black 384-well clear bottom sterile plates coated with poly-D-lysine. All reagents were from GIBCO-Invitrogen Corp. The seeded plates are incubated overnight at 37° C. and 5% CO2. Ala-6,12 human orexin-A as the agonist is prepared as a 1 mM stock solution in 1% bovine serum albumin (BSA) and diluted in assay buffer (HBSS containing 20 mM HEPES, 0.1% BSA and 2.5 mM probenecid, pH7.4) for use in the assay at a final concentration of 70 pM. Test compounds are prepared as 10 mM stock solution in DMSO, then diluted in 384-well plates, first in DMSO, then assay buffer. On the day of the assay, cells are washed 3 times with 100 ul assay buffer and then incubated for 60 min (37° C., 5% CO2) in 60 ul assay buffer containing 1 uM Fluo-4AM ester, 0.02% pluronic acid, and 1% BSA. The dye loading solution is then aspirated and cells are washed 3 times with 100 ul assay buffer. 30 ul of that same buffer is left in each well. Within the Fluorescent Imaging Plate Reader (FLIPR, Molecular Devices), test compounds are added to the plate in a volume of 25 ul, incubated for 5 min and finally 25 ul of agonist is added. Fluorescence is measured for each well at 1 second intervals for 5 minutes and the height of each fluorescence peak is compared to the height of the fluorescence peak induced by 70 pM Ala-6,12 orexin-A with buffer in place of antagonist. For each antagonist, IC50 value (the concentration of compound needed to inhibit 50% of the agonist response) is determined. Alternatively, compound potency can be assessed by a radioligand binding assay (described in Bergman et. al. Bioorg. Med. Chem. Lett. 2008, 18, 1425-1430) in which the inhibition constant (Ki) is determined in membranes prepared from CHO cells expressing either the OX1 or OX2 receptor. The intrinsic orexin receptor antagonist activity of a compound which may be used in the present invention may be determined by these assays.
Turning to `CNC(=O)[C@@H](c1ccccc1)N1CCc2nc(OC)c(OC)cc2[C@@H]1CCc1ccc(C(F)(F)F)cc1` [Compound 1-6, (2R)-2-[(5S)-2,3-dimethoxy-5-{-2-[4-(trifluoromethyl)phenyl]ethyl}-7,8-dihydro-1,6-naphthyridin-6(5H)-yl]-N-methyl-2-phenylethanamide], the pKi is 9.72.
As for `CNC(=O)[C@@H](c1ccccc1)N1CCc2nc(OC)c(OC)cc2[C@@H]1CCc1ccc(Cl)cc1` [Compound 1-7, (2R)-2-[(5S)-5-[2-(4-chlorophenyl)-ethyl]-2,3-dimethoxy-7,8-dihydro-1,6-naphthyridin-6(5H)-yl]-N-methyl-2-phenylethanamide], the figure is 9.59.
As for `CNC(=O)[C@@H](c1ccccc1)N1CCc2nc(OC)c(OC)cc2[C@@H]1CCc1ccc(F)cc1F` [Compound 1-8, (2R)-2-[(5S)-5-[2-(2,4-difluoro-phenyl)ethyl]-2,3-dimethoxy-7,8-dihydro-1,6-naphthyridin-6(5H)-yl]-N-methyl-2-phenylethanamide], the figure is 9.00; as for `CNC(=O)[C@@H](c1ccccc1)N1CCc2nc(OC)c(OC)cc2[C@@H]1CCc1ccc(C)cc1` [Compound 1-9, (2R)-2-[(5S)-2,3-dimethoxy-5-[2-(4-methylphenyl)ethyl]-7,8-dihydro-1,6-naphthyridin-6(5H)-yl]-N-methyl-2-phenylethanamide], 9.74; as for `CNC(=O)[C@@H](c1ccccc1)N1CCc2cc(OC)c(OC)nc2[C@@H]1CCc1ccc(C(F)(F)F)cc1` [Compound 1-10, (2R)-2-[(8S)-2,3-dimethoxy-8-{2-[4-(trifluoromethyl)phenyl]ethyl}-5,8-dihydro-1,7-naphthyridin-7(6H)-yl]-N-methyl-2-phenylethanamide], 9.77.
Next, `CNC(=O)[C@@H](c1ccccc1)N1CCc2nc(OC)c(OC)nc2[C@@H]1CCc1ccc(C(F)(F)F)cc1` [Compound 1-11, (2R)-2-[(5S)-2,3-dimethoxy-5-{2-[4-(trifluoromethyl)phenyl]ethyl}-7,8-dihydropyrido[3,4-b]pyrazin-6(5H)-yl]-N-methyl-2-phenylethanamide]: 9.36.

One may read the pKi as −log10 of the Ki, conventionally taken in molar units. Low readings indicate a high Ki, high ones a low Ki.
